Assay results: PMC1976805, “Preclinical pharmacokinetics of benznidazole” (British Journal of Cancer, 1984)
Where two headings read alike, the source gives them in different places.

How the values were obtained:
[1] = Whole plasma pharmacokinetics in sheep (HPLC); assay type: in vivo; conditions: for half-life: male, Clun Forest/Border Leicester cross, sheep, plasma, iv
Text: Br. J. Cancer (1984), 50, 291-303 Preclinical pharmacokinetics of benznidazole P. Workman', R.A.S. White2, M.I. Walton', L.N. Owen2* & P.R. Twentyman' 1MRC Clinical Oncology and Radiotherapeutics Unit, MRC Centre, Hills Road, Cambridge CB2 2QH, and 2Department of Clinical Veterinary Medicine, University of Cambridge, Madingley Road, Cambridge CB3 OES, UK. […] We have investigated the detailed pharmacokinetics of benznidazole in mice, dogs and sheep to provide a data base for the estimation of doses required for chemosensitization in man. Pharmacokinetic behaviour was linear except at high doses in mice. Absorption was fairly rapid and bioavailability was complete following both i.p. administration in mice and oral administration in dogs. Elimination t4 values were longer than for MISO, being 90 min in mice, 4-5 h in sheep and 9-11 h in dogs. At doses giving linear kinetics, peak whole plasma concentrations per administered mgkg-1 were 0.75 jigml-1 for the i.p. route in mice and 1.8jugmlP' for the oral route in dogs. Though between 39 and 59% of plasma benznidazole was bound to protein, tissue penetration was generally good. Tissue/whole plasma ratios ranged from 59-99% for transplantable mouse tumours and from 14-70% for spontaneous dog neoplasms. Nervous tissue penetration was similar to that in tumours: brain/whole plasma ratios averaged between 61 and 76% in mice and 42% in dogs, while peripheral nerve/whole plasma ratios in dogs averaged 74%. Mean liver/whole plasma ratios were 42% and 71% in BALB/c and C3H/He mouse strains respectively. Only -5% of the administered dose was excreted unchanged in the urine, indicating the likelihood of extensive metabolism. […] Enhancement of CCNU response is likely to require circulating benznidazole concentrations of 10-30 pgml-1 and we predict that these will be obtained with oral doses of 6-20 mgkg- 1 in man. […] This enhancement, or chemosensitization, is usually greater than that seen in dose-limiting normal tissues, resulting in an improved therapeutic index. Because of the relatively high doses of MISO usually required for chemosensitization in mice (see above refs), and also because of its neurotoxicity in man (Dische et al., 1977), we have been interested in finding an improved chemosensitizer. […] The lipophilic ana- logue benznidazole (N-benzyl-(2-nitroimidazolyl) acetamide, Ro 07-1051; Radanil; Roche), the structure of which is shown in Figure 1, was selected for detailed study because of its ability to *Present address: Animal Health Trust, Small Animals Centre, Lanwades Park, Kennett, Newmarket, Suffolk CB8 7PN, UK. Correspondence: P. Workman. […] These findings have been confirmed independently by Siemann et al. (1983). Although benznidazole is used quite widely in South America to treat patients with the trypanosomal infection Chagas' disease or with mucotaneous Leishmaniasis (Barclay et al., 1978; Cerisola et al., 1978; Coura et al., 1978; Fava et al., 1978), apart from our preliminary studies (White et al., 1982) the only published data on its pharmaco- kinetics are for human plasma concentrations measured by polarography (Raaflub & Ziegler, 1979; Raaflub, 1980). Here we describe the pharmacokinetics of benznidazole in the mouse, sheep and dog, as determined by high-performance liquid chromatography (HPLC). […]

[2] = Penetration into whole brain of BALB/c mice bearing EMT6 tumours; assay type: in vivo, mouse; conditions: for brain/whole plasma ratio (% ± s.e.) / brain/whole plasma ratio (s.e., n=5): 650 mg kg-1 i.p.; for tumour/brain ratio (% + s.e.): EMT6, 650 mg kg-1 i.p.; for brain/whole plasma ratio (s.e., n=5): experiment b; for Kp: male, BALB/c, mouse, whole brain / whole plasma
Text: (§1) Br. J. Cancer (1984), 50, 291-303 Preclinical pharmacokinetics of benznidazole P. Workman', R.A.S. White2, M.I. Walton', L.N. Owen2* & P.R. Twentyman' 1MRC Clinical Oncology and Radiotherapeutics Unit, MRC Centre, Hills Road, Cambridge CB2 2QH, and 2Department of Clinical Veterinary Medicine, University of Cambridge, Madingley Road, Cambridge CB3 OES, UK. […] We have investigated the detailed pharmacokinetics of benznidazole in mice, dogs and sheep to provide a data base for the estimation of doses required for chemosensitization in man. Pharmacokinetic behaviour was linear except at high doses in mice. Absorption was fairly rapid and bioavailability was complete following both i.p. administration in mice and oral administration in dogs. Elimination t4 values were longer than for MISO, being 90 min in mice, 4-5 h in sheep and 9-11 h in dogs. At doses giving linear kinetics, peak whole plasma concentrations per administered mgkg-1 were 0.75 jigml-1 for the i.p. route in mice and 1.8jugmlP' for the oral route in dogs. Though between 39 and 59% of plasma benznidazole was bound to protein, tissue penetration was generally good. Tissue/whole plasma ratios ranged from 59-99% for transplantable mouse tumours and from 14-70% for spontaneous dog neoplasms. Nervous tissue penetration was similar to that in tumours: brain/whole plasma ratios averaged between 61 and 76% in mice and 42% in dogs, while peripheral nerve/whole plasma ratios in dogs averaged 74%. Mean liver/whole plasma ratios were 42% and 71% in BALB/c and C3H/He mouse strains respectively. Only -5% of the administered dose was excreted unchanged in the urine, indicating the likelihood of extensive metabolism. […] Enhancement of CCNU response is likely to require circulating benznidazole concentrations of 10-30 pgml-1 and we predict that these will be obtained with oral doses of 6-20 mgkg- 1 in man. […] This enhancement, or chemosensitization, is usually greater than that seen in dose-limiting normal tissues, resulting in an improved therapeutic index. Because of the relatively high doses of MISO usually required for chemosensitization in mice (see above refs), and also because of its neurotoxicity in man (Dische et al., 1977), we have been interested in finding an improved chemosensitizer. […] The lipophilic ana- logue benznidazole (N-benzyl-(2-nitroimidazolyl) acetamide, Ro 07-1051; Radanil; Roche), the structure of which is shown in Figure 1, was selected for detailed study because of its ability to *Present address: Animal Health Trust, Small Animals Centre, Lanwades Park, Kennett, Newmarket, Suffolk CB8 7PN, UK. Correspondence: P. Workman. […] These findings have been confirmed independently by Siemann et al. (1983). Although benznidazole is used quite widely in South America to treat patients with the trypanosomal infection Chagas' disease or with mucotaneous Leishmaniasis (Barclay et al., 1978; Cerisola et al., 1978; Coura et al., 1978; Fava et al., 1978), apart from our preliminary studies (White et al., 1982) the only published data on its pharmaco- kinetics are for human plasma concentrations measured by polarography (Raaflub & Ziegler, 1979; Raaflub, 1980). Here we describe the pharmacokinetics of benznidazole in the mouse, sheep and dog, as determined by high-performance liquid chromatography (HPLC). […] The Macmillan Press Ltd., 1984 292 P. WORKMAN et al. particularly on plasma and tumour concentrations, have been used as a basis for the estimation of the benznidazole doses required in a Phase I trial of benznidazole plus CCNU, at present ongoing in our Unit. Materials and methods Animals and tumours Adult inbred male BALB/c mice were obtained from OLAC (Southern) Ltd. (Bicester, UK) and adult inbred C3H/He mice of both sexes from OLAC and our own breeding colony. Mice were housed in plastic cages on sawdust bedding made from soft white woods, and allowed laboratory chow and water ad lib. They were used at 20-35 g body wt.

[3] = tested on: plasma proteins; assay: Plasma protein binding, summary over species; assay type: in vivo; conditions: mouse, sheep, dog, range over species studied
Text: (§2) Br. J. Cancer (1984), 50, 291-303 Preclinical pharmacokinetics of benznidazole P. Workman', R.A.S. White2, M.I. Walton', L.N. Owen2* & P.R. Twentyman' 1MRC Clinical Oncology and Radiotherapeutics Unit, MRC Centre, Hills Road, Cambridge CB2 2QH, and 2Department of Clinical Veterinary Medicine, University of Cambridge, Madingley Road, Cambridge CB3 OES, UK. […] We have investigated the detailed pharmacokinetics of benznidazole in mice, dogs and sheep to provide a data base for the estimation of doses required for chemosensitization in man. Pharmacokinetic behaviour was linear except at high doses in mice. Absorption was fairly rapid and bioavailability was complete following both i.p. administration in mice and oral administration in dogs. […] Although benznidazole is used quite widely in South America to treat patients with the trypanosomal infection Chagas' disease or with mucotaneous Leishmaniasis (Barclay et al., 1978; Cerisola et al., 1978; Coura et al., 1978; Fava et al., 1978), apart from our preliminary studies (White et al., 1982) the only published data on its pharmaco- kinetics are for human plasma concentrations measured by polarography (Raaflub & Ziegler, 1979; Raaflub, 1980). Here we describe the pharmacokinetics of benznidazole in the mouse, sheep and dog, as determined by high-performance liquid chromatography (HPLC). […]

[4] = 24 h urinary recovery of unchanged drug in mice; assay type: in vivo, mouse; conditions: for dose excreted: male, BALB/c, mouse, urine, ip, 650 mg kg-1, BALB/c mice, 650 mg kg-1 i.p.
Text: as §2, with “dogs. Elimination t4 values were longer than for MISO, being 90 min in mice, 4-5 h in sheep and 9-11 h in dogs. At doses giving linear kinetics, peak whole plasma concentrations per administered mgkg-1 were 0.75 jigml-1 for the i.p. route in mice and 1.8jugmlP' for the oral route in dogs. Though between 39 and 59% of plasma benznidazole was bound to protein, tissue penetration was generally good. Tissue/whole plasma ratios ranged from 59-99% for transplantable mouse tumours and from 14-70% for spontaneous dog neoplasms. Nervous tissue penetration was similar to that in tumours: brain/whole plasma ratios averaged between 61 and 76% in mice and 42% in dogs, while peripheral nerve/whole plasma ratios in dogs averaged 74%.” for “dogs.”

[5] = Whole plasma pharmacokinetics of benznidazole in mice (HPLC); assay type: in vivo, mouse; conditions: BALB/c mice; for i.p. bioavailability (from AUC0-∞): 65 mg kg-1 i.p.
Text: as §1

O=C(Cn1ccnc1[N+](=O)[O-])NCc1ccccc1 [benznidazole, N-benzyl-(2-nitroimidazolyl) acetamide]
half-life ([1]; 4 mg/kg, sheep 1, 4 mg kg-1 i.v., read-out: elimination t1/2 (95% confidence limits) (converted)): 5.2 h | half-life ([1]; 4 mg/kg, sheep 2, 4 mg kg-1 i.v., read-out: elimination t1/2 (95% confidence limits) (converted)): 3.8 h | half-life ([1]; summary value, read-out: elimination t1/2): 4 to 5 h | peak whole plasma concentration ([1]; sheep 1, 4 mg kg-1 i.v.): 3.6 µg/mL | peak whole plasma concentration ([1]; sheep 2, 4 mg kg-1 i.v.): 2.5 µg/mL | brain/whole plasma ratio (% ± s.e.) ([2]; Exp 1 (a), n=16): 61+5% | tumour/brain ratio (% + s.e.) ([2]; Exp 1 (a), n=16): 120+33% | brain/whole plasma ratio (% ± s.e.) ([2]; Exp 2 (b), n=20): 68+3% | tumour/brain ratio (% + s.e.) ([2]; Exp 2 (b), n=20): 116+5% | brain/whole plasma ratio (% ± s.e.) ([2]; Exp 3 (c), n=20): 76+4% | tumour/brain ratio (% + s.e.) ([2]; Exp 3 (c), n=20): 99+7% | brain/whole plasma ratio (s.e., n=5) ([2]; 45 min): 56+3% | brain/whole plasma ratio (s.e., n=5) ([2]; 75 min): 69+3% | brain/whole plasma ratio (s.e., n=5) ([2]; 105 min): 71+5% | brain/whole plasma ratio (s.e., n=5) ([2]; 135 min): 75 +5% | Kp ([2]; mice, discussion comparison with MISO, read-out: brain/whole plasma ratio): 0.68 | Kp ([2]; read-out: brain/whole plasma ratios, range of averages): 0.61 to 0.76 | fraction unbound [3]: 0.41 to 0.61 | dose excreted ([4]; experiment 1): 4.8% | dose excreted ([4]; experiment 2): 5.2% | administered dose excreted unchanged in the urine ([4]; summary value): approximately 5% | peak whole plasma concentration (+2 s.e.) ([5]; 26 mg kg-1 i.p.): 18.0+3.7 µg ml-1 | i.p. bioavailability (from AUC0-∞) ([5]; 50% polyethylene glycol/saline vehicle): 87% | i.p. bioavailability (from AUC0-∞) ([5]; dimethyl sulphoxide vehicle): 113% | peak whole plasma concentration (+2 s.e.) ([5]; 78 mg kg-1 i.p.): 36.0+2.5 µg ml-1
